Laboratory results taken from patent US6800482B2, “Cultured cells of Australian laurel, Pittosporaceae and a method for culturing tissues by using said cultured cells” (Hiroshima University, priority 2001, dated 2004).

What was measured:
Type in all cases: cell-based
[1] = system: leaf of the Australian laurel, Pittosporaceae; assay: Redifferentiation from the leaf in WP culture medium (Example 3, Table 2); details: NAA 0 μM, 22 to 28° C., bright place
Experimental: (§1) A WP culture medium or a MS culture medium was used as a fundamental culture medium. As a carbon source was used 1% sucrose, and 0.3% Gellan-Gum (Trade name) was used as a gelling agent. An Australian laurel, Pittosporaceae seed was treated with 70% ethanol for 1 hour with 2.5% sodium hypochlorite for 1 hour, and sterilized by washing it with sterilized water. After water was fed to the seed 2 night or more at 4° C. in dark, it was planted in the culture medium. After germination, a seedling of four weeks age was used for a tissue culturing. Cut pieces, 1 mm thick, were prepared from a leave, a stem and a roof of the living matter, and planted and cultured in the same culture medium as mentioned above but containing naphthaleneacetic acid and thidiazuron (TDZ) as a hormon. […] About 2 months after the planting, a shoot was cut out from the polyblast, and indoleacetic acid was applied to a cut portion of the shoot. The shoot treated with indoleacetic acid was inserted into a solid culture medium or a mixed soil of perlite and vermiculite containing a culture medium. The shoot was cultured and rooted.
Redifferentiation from the leaf and the stem of the Australian laurel, Pittosporaceae was examined. The WP culture medium was used as a culture medium. A culturing temperature was set in a range of 22 to 28° C. The Australian laurel, Pittosporaceae was cultured in a bright place. […]

[2] = system: Embryo (text: stem) of the Australian laurel, Pittosporaceae; assay: Redifferentiation, column Embryo, in WP culture medium (Example 3, Table 2); details: for Redifferentiation Embryo: NAA 0 μM, WP culture medium, 22 to 28° C., bright place
Experimental: as §1
Redifferentiation from the leaf and the stem of the Australian laurel, Pittosporaceae was examined. The WP culture medium was used as a culture medium. A culturing temperature was set in a range of 22 to 28° C. The Australian laurel, Pittosporaceae was cultured in a bright place. The planting condition and the other culturing conditions were the same as those in Example 1.

[3] = system: cut pieces from the stem of Australian laurel, Pittosporaceae; assay: Tissue culture of cut pieces in culture medium containing thidiazuron and naphthaleneacetic acid (Example 1, Table 1); details: for Numbers of cut pieces leading to stem or leaf/10 cut pieces: NAA 0 μM, WP culture medium, 6 weeks
Experimental: as §1
Cut pieces from the stem was cultured in the WP culture medium added with thidiazuron and naphthaleneacetic acid for 6 weeks, and observation results thereof are shown in Table 1.

O=C(Nc1ccccc1)Nc1cnns1 [TDZ, thidiazuron]
Redifferentiation Leaf ([1]; TDZ 10^4 nM): 0%
Redifferentiation Leaf ([1]; TDZ 10^5 nM): 0%
Redifferentiation Embryo ([2]; TDZ 10^4 nM): 5.0%
Redifferentiation Embryo ([2]; TDZ 10^5 nM): 10.0%
Redifferentiation percentages ([2]; cultures containing 10^4 to 10^5 nM thidiazuron): considerably high redifferentiation percentages
Numbers of cut pieces leading to stem or leaf/10 cut pieces ([3]; TDZ 0.1 μm): 0 /10 cut pieces
Numbers of cut pieces leading to stem or leaf/10 cut pieces ([3]; TDZ 10 μm): 0 /10 cut pieces
Redifferentiation ([3]; concentration of thidiazuron not less than 10 μM, culture medium containing naphthaleneacetic acid): redifferentiation was confirmed
